Key:
HCV NS3 helicase [1] = target: T1, HCV NS3 helicase (Hepatitis C virus genotype 1a, UniProt P27958); assay: PET-based fluorescence helicase assay; format: biochemical
T1 construct: The full-length HCV NS3 protein with serine protease and NTPase/helicase activities was expressed and purified as described previously; made in house
Method: The PET-based fluorescence helicase assay was performed as described previously. The dsRNA substrate was prepared by annealing the 5′ BODIPY FL-labeled fluorescence strand (5′-[…]-3′) to the quencher strand (5′-[…]-3′) at a 1:2 molar ratio. The dsRNA substrate contains the 3′-overhang that is necessary for the NS3 helicase to bind RNA prior to duplex unwinding. The capture strand (5′-[…]-3′), which is complementary to the quencher strand, prevents the unwound duplexes from reannealing. None of the capture, quencher, or fluorescence strands are self-complementary. The fluorescence strand was purchased from J-Bio 21 Corporation (Tokyo, Japan), and was labeled with BODIPY FL at the 5′-end via an aminohexylphosphate linker with a six-carbon spacer. […]
The reaction was started by the addition of HCV NS3 helicase, and was performed at 37 °C for 30 min using a LightCycler 1.5 (Roche Diagnostics, Basel, Switzerland). The fluorescence intensity was recorded every 5 s from 0 to 5 min, and then every 30 s from 5 to 30 min. Helicase activity was calculated as the initial reaction velocity relative to control (in the absence of a marine extract, but presence of DMSO vehicle). The IC50 was calculated using KaleidaGraph (Synergy Software, Reading, PA, USA) by fitting plots of % activity vs. [I] using Equation (1) unless otherwise noted: [drawing 1] […]

HCV NS3 helicase [2] = target: T1, HCV NS3 helicase; assay: Gel-based HCV NS3 helicase assay; format: biochemical; conditions: 0–100 µM inhibitor
Method: A gel-based helicase assay was performed on HCV NS3 helicases using an Alexa Fluor 488-labeled dsRNA strand and capture strand with the same nucleic acid sequences described in Section 3.2. The dsRNA substrate was prepared by annealing the 5′ Alexa Fluor 488-labeled strand (5′-[…]-3′) to the complementary strand (5′-[…]-3′) at a 1:2 molar ratio. The same capture strand described in Section 3.2 was used. All nucleic acid strands were purchased from Japan Bio Services (Saitama, Japan). The reaction mixture for HCV NS3 helicase contained the same components as described in Section 3.2, with increasing concentrations of hal3 or suvanine in a reaction volume of 20 µL. The reaction was started by the addition of HCV NS3 helicase, and performed at 37 °C for 60 min using a GeneAmp PCR System 2700 (Applied Biosystems, Foster City, CA, USA). […] The helicase activity was calculated as the ratio of the signal intensity derived from ssRNA in the sample containing inhibitor to that in the control sample containing DMSO vehicle instead of inhibitor.

NS3 ATPase activity = target: T2, NS3 ATPase activity (Hepatitis C virus genotype 1a, UniProt P27958); assay: ATPase assay ([γ-32P] ATP hydrolysis, thin-layer chromatography); format: biochemical; conditions: poly(U) RNA, 0–100 µM inhibitor
T2 construct: The full-length HCV NS3 protein with serine protease and NTPase/helicase activities was expressed and purified as described previously; made in house
T2 sequence (P27958 1027-1657): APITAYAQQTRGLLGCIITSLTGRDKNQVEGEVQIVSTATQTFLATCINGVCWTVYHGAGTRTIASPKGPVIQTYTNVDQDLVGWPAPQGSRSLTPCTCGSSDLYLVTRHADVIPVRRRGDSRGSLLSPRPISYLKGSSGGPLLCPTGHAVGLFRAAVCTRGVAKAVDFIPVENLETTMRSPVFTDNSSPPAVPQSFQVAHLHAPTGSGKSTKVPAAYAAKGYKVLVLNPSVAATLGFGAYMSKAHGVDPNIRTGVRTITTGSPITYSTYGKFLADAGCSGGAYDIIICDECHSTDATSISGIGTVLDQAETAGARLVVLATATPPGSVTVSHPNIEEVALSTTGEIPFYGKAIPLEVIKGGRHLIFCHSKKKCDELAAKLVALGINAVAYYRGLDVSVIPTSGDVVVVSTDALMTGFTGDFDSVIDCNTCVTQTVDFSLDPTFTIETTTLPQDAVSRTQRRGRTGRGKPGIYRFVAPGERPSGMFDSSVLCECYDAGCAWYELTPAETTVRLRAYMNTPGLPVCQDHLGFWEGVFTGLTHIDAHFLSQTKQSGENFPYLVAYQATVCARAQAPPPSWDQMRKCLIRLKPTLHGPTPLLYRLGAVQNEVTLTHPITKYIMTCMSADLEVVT
Method: NS3 ATPase activity was determined directly by monitoring [γ-^32P] ATP hydrolysis by thin-layer chromatography, as described previously. The reaction mixture contained 25 mM MOPS-NaOH (pH 7.0), 1 mM dithiothreitol, 5 mM MgCl2, 5 mM CaCl2, 1 mM [γ-^32P] ATP (Muromachi Yakuhin, Tokyo, Japan), 300 nM NS3, 0.1 µg/µL poly (U) ssRNA (Sigma-Aldrich, St. Louis, MO, USA), and increasing concentrations of hal3 or suvanine in a volume of 10 µL. The reaction was conducted at 37 °C for 10 min, and stopped by the addition of 10 mM EDTA. Two microliters of each reaction mixture was then spotted onto a polyethyleneimine cellulose sheet (Merck, Darmstadt, Germany) and developed in 0.75 M LiCl/1 M formic acid solution for 20 min. The cellulose sheet was dried, and the released [γ-^32P] phosphoric acid was visualized using an Image Reader FLA-9000 and quantified using Multi Gauge software V 3.11 (Fujifilm, Tokyo, Japan). ATPase activity was calculated as the ratio of the signal intensity derived from the released Pi in the sample containing inhibitor to that in the control sample containing DMSO vehicle instead of inhibitor.

NS3 RNA binding activity = target: T3, NS3 RNA binding activity (Hepatitis C virus genotype 1a, UniProt P27958); assay: RNA binding assay (gel mobility shift); conditions: 32P-labeled ssRNA, 0–100 µM inhibitor
T3 construct: The full-length HCV NS3 protein with serine protease and NTPase/helicase activities was expressed and purified as described previously; made in house
T3 sequence (P27958 1027-1657): as above
Method: NS3 RNA binding activity was determined by gel mobility shift assay, as described previously. The ssRNA (5′-[…]-3′) synthesized by Gene Design (Osaka, Japan) was labeled at the 5′-end with [γ-^32P] ATP (Muromachi Yakuhin, Tokyo, Japan) using T4 polynucleotide kinase (Toyobo, Osaka, Japan) at 37 °C for 60 min, and purified using the phenol-chloroform extraction method. The reaction mixture contained 30 mM Tris-HCl (pH 7.5), 100 mM NaCl, 2 mM MgCl2, 1 mM dithiothreitol, 20 U RNasin Plus (Promega), 300 nM NS3, 0.1 nM ^32P-labeled ssRNA, and increasing concentrations of inhibitor in a volume of 20 µL. The reaction was performed at room temperature for 15 min. An equal volume of a dye solution containing 0.025% bromophenol blue and 10% glycerol in 0.5× TBE was then added to each reaction mixture, and samples were loaded onto a 6% native-polyacrylamide gel. The labeled RNA bands were visualized using an Image Reader FLA-9000 and quantified using Multi Gauge software V 3.11 (Fujifilm, Tokyo, Japan). RNA binding activity was calculated as the ratio of the signal intensity derived from the NS3-ssRNA complex in the sample containing hal3 or suvanine to that in the control sample containing DMSO vehicle rather than inhibitor.

HCV NS3/4A protease = target: T4, HCV NS3/4A protease (Hepatitis C virus genotype 1a, UniProt P27958); assay: Fluorescence NS3 serine protease assay (FRET); format: biochemical
T4 construct: NS3 protein with a two-fold excess of the NS4A cofactor peptide Pep4AK was prepared in 1× assay buffer; made in house
T4 sequence (P27958 1027-1657): as above
Method: A fluorescence NS3 serine protease assay, based on fluorescence resonance energy transfer, was conducted using reagents provided in a SensoLyte™ 520 HCV protease assay kit (AnaSpec, San Jose, CA, USA), as described previously. Briefly, NS3 protein with a two-fold excess of the NS4A cofactor peptide Pep4AK was prepared in 1× assay buffer provided with the kit. HCV NS3/4A protease was mixed with increasing concentrations of inhibitor, and incubated at 37 °C for 15 min. The reaction was started by the addition of 5-FAM/QXL 520 substrate in a 20 µL total reaction volume containing 240 nM HCV NS3/4A protease and increasing concentrations of hal3 or suvanine. Reactions were then incubated at 37 °C for 120 min on a LightCycler 1.5 (Roche Diagnostics, Basel, Switzerland), and the fluorescence intensity was recorded every min for 120 min. NS3 serine protease activity was calculated as the initial reaction velocity in the sample containing inhibitor relative to the control sample containing DMSO vehicle rather than inhibitor.

DENV NS3 helicase = target: T5, DENV NS3 helicase (Dengue virus type 2, UniProt P29990); assay: Gel-based DENV NS3 helicase assay; format: biochemical; conditions: in the presence of 100 µM of each inhibitor
T5 construct: made in house
T5 sequence (P29990 1476-2093): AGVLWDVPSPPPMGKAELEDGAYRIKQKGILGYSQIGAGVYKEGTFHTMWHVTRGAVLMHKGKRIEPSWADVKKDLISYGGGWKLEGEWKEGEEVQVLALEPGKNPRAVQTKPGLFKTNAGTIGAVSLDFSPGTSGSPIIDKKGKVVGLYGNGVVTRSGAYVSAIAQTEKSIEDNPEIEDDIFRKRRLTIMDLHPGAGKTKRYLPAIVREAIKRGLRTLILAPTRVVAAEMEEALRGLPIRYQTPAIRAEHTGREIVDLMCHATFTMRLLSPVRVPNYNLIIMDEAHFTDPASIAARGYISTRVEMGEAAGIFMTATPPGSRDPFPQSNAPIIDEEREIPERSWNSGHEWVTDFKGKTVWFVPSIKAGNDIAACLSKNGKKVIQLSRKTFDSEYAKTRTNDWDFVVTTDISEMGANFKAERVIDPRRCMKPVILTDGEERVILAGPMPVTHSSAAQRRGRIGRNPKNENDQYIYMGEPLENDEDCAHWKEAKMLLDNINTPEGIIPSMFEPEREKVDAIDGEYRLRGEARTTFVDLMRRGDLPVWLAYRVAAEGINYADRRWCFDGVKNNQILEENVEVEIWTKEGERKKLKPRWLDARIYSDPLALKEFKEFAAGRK
Method: A gel-based helicase assay was performed using DENV NS3 helicases, and the Alexa Fluor 488-labeled dsRNA strand and capture strand with the same nucleic acid sequences described in the Section 3.3. DENV NS3 helicase requires a single stranded 3′ overhang to unwind dsRNA substrates in the 3′ to 5′ direction; therefore, the substrate specificities of the DENV and HCV NS3 helicases are the same. The reaction mixture contained 50 mM Tris-HCl (pH 7.4), 1 mM DTT, 0.5% Tween 20, 0.25 µg/mL BSA, 2 mM MgCl2, 4 U RNasin (Promega), 5 mM ATP, 50 nM dsRNA substrate, 300 nM capture strand, an inhibitor, and 240 nM DENV NS3 in a total volume of 20 µL. DENV NS3 helicase was prepared as described previously. The reaction was started by the addition of DENV NS3 helicase, and was performed at 37 °C for 60 min using a GeneAmp PCR System 2700 (Applied Biosystems, Foster City, CA, USA). […] The helicase activity was calculated as the ratio of the signal intensity from ssRNA in the sample containing inhibitor to that in the control sample containing DMSO vehicle instead of inhibitor.

serine protease = conditions: cited from earlier work
farnesoid-X-receptor = system: farnesoid-X-receptor; set-up: method as in PMID 23656455; conditions: mammalian bile acid sensor; cited from earlier work
heat shock protein 60 = conditions: cited from earlier work

T1 sequence (P27958 1027-1657): as the sequence (P27958 1027-1657) above

Row | SMILES | IC50 (HCV NS3 helicase [1]) [µM] | helicase-catalyzed RNA unwinding (HCV NS3 helicase [2]) | IC50 (NS3 ATPase activity) [µM] | IC50 (NS3 RNA binding activity) [µM] | IC50 (HCV NS3/4A protease) [µM] | DENV NS3 helicase activity (DENV NS3 helicase) | serine protease inhibition (serine protease) | farnesoid-X-receptor antagonism (farnesoid-X-receptor) | interference with heat shock protein 60 (heat shock protein 60)
1 | CC1(C)CCC[C@]2(C)[C@H]3CC/C(=C\OS(=O)(=O)[O-])[C@H](CCc4ccoc4)[C@@]3(C)CC[C@@H]12.[Na+] [suvanine] | 3 | inhibited helicase-catalyzed RNA unwinding in a dose-dependent manner | 7 | 3 | 34 | did not abolish | serine protease inhibitor | antagonist | interferes with
2 | C[C@@H]1CCC2=C(CCCC2(C)C)[C@@]1(C)CC[C@H](CCCc1ccoc1)COS(=O)(=O)[O-].[Na+] [hal3, halisulfate 3] | 4 | inhibited helicase-catalyzed RNA unwinding in a dose-dependent manner | 8 | 8 | 14 | did not abolish |  |  | 
